Tested on: 253994-281-T-J1-PDC KRAS-mutant spheroids with HUVEC/MSC, viability
Experiment: Anticancer human tumor 253994-281-T-J1-PDC patient-derived colorectal carcinoma cell line growth inhibition [KRAS2]
Details: for IC50: curve of first compound; for viability, T/C: stronger effect = lower value
Procedure, shortened: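 KRAS-mutant tumor cells were grown as spheroids with HUVEC endothelial cells and human MSCs as stroma. Targeted agents were tested alone and with KRAS pathway inhibitors. Doses started at or near clinical Cmax, or 10 microM, descending half-log.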

[1] = second compound 0.1 µM, first compound 0.0316 µM
[2] = second compound 0.1 µM, first compound 0.1 µM
[3] = second compound 0.1 µM, first compound 0.316 µM
[4] = second compound 0.1 µM, first compound 1 µM
[5] = second compound 0.1 µM, first compound 3.16 µM
[6] = second compound 0.316 µM, first compound 0.0316 µM
[7] = second compound 0.316 µM, first compound 0.1 µM
[8] = second compound 0.316 µM, first compound 0.316 µM
[9] = second compound 0.316 µM, first compound 1 µM
[10] = second compound 0.316 µM, first compound 3.16 µM
[11] = second compound 1 µM, first compound 0.0316 µM
[12] = second compound 1 µM, first compound 0.1 µM
[13] = second compound 1 µM, first compound 0.316 µM
[14] = second compound 1 µM, first compound 1 µM
[15] = second compound 1 µM, first compound 3.16 µM
[16] = second compound 3.16 µM, first compound 0.0316 µM
[17] = second compound 3.16 µM, first compound 0.1 µM
[18] = second compound 3.16 µM, first compound 0.316 µM
[19] = second compound 3.16 µM, first compound 1 µM
[20] = second compound 3.16 µM, first compound 3.16 µM
[21] = second compound 10 µM, first compound 0.0316 µM
[22] = second compound 10 µM, first compound 0.1 µM
[23] = second compound 10 µM, first compound 0.316 µM
[24] = second compound 10 µM, first compound 1 µM
[25] = second compound 10 µM, first compound 3.16 µM
[26] = second compound 0.1 µM, first compound 10 µM
[27] = second compound 0.316 µM, first compound 10 µM
[28] = second compound 1 µM, first compound 10 µM
[29] = second compound 3.16 µM, first compound 10 µM
[30] = second compound 10 µM, first compound 10 µM
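Note: spheroids exposed to agents for seven days before readout.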
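Throughout, for viability, T/C: percent of DMSO vehicle control viability.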

CC1COCCN1c1cc(-c2ccnn2C)c2ccnc(-c3ccn[nH]3)c2n1 (stereo not given) + C=CC(=O)N1CCN(c2nc(=O)n(-c3c(C)ccnc3C(C)C)c3nc(-c4c(O)cccc4F)c(F)cc23)C(C)C1 was tested, and the IC50 (second compound 0.1 µM) was over 3.16 µM, the IC50 (second compound 0.316 µM) was over 3.16 µM and the IC50 (second compound 1 µM) was over 3.16 µM. It also gave an IC50 (second compound 3.16 µM) of over 3.16 µM, an IC50 (second compound 10 µM) of over 3.16 µM and a viability, T/C (second compound 0.1 µM, first compound 0.01 µM) of 97.5%. The viability, T/C [1] was 93.9%, the viability, T/C [2] was 76.9% and the viability, T/C [3] was 55.7%. For the same compound, the viability, T/C [4] was 50.6%, the viability, T/C [5] was 56.5% and the viability, T/C (second compound 0.316 µM, first compound 0.01 µM) was 105%. For the same compound, the viability, T/C [6] was 90%, the viability, T/C [7] was 76.6% and the viability, T/C [8] was 51.7%. It also gave a viability, T/C [9] of 60.8%, a viability, T/C [10] of 57.4% and a viability, T/C (second compound 1 µM, first compound 0.01 µM) of 105%. The viability, T/C [11] was 89%, the viability, T/C [12] was 72.7% and the viability, T/C [13] was 61.9%. It also gave a viability, T/C [14] of 59.6%, a viability, T/C [15] of 57.2% and a viability, T/C (second compound 3.16 µM, first compound 0.01 µM) of 100%. It also gave a viability, T/C [16] of 99.6%, a viability, T/C [17] of 73.2% and a viability, T/C [18] of 51.7%. The viability, T/C [19] was 51.4%, the viability, T/C [20] was 58.9% and the viability, T/C (second compound 10 µM, first compound 0.01 µM) was 94.9%. The viability, T/C [21] was 111%, the viability, T/C [22] was 75.2% and the viability, T/C [23] was 56.4%. The viability, T/C [24] was 55.3% and the viability, T/C [25] was 62%.

For CC1OCC2(CCN(c3cnc(Sc4ccnc(N)c4Cl)c(N)n3)CC2)C1N (stereo not given) + C=CC(=O)N1CCN(c2nc(=O)n(-c3c(C)ccnc3C(C)C)c3nc(-c4c(O)cccc4F)c(F)cc23)C(C)C1, the IC50 (second compound 0.1 µM) was 8.95 µM, the IC50 (second compound 0.316 µM) was 6.56 µM and the IC50 (second compound 1 µM) was over 10 µM. For the same compound, the IC50 (second compound 3.16 µM) was 9.85 µM, the IC50 (second compound 10 µM) was over 10 µM and the viability, T/C [1] was 89.8%. The viability, T/C [2] was 87.4%, the viability, T/C [3] was 81.8% and the viability, T/C [4] was 82.3%. For the same compound, the viability, T/C [5] was 70.7%, the viability, T/C [26] was 47.6% and the viability, T/C [6] was 89.5%. For the same compound, the viability, T/C [7] was 88.3%, the viability, T/C [8] was 89.3% and the viability, T/C [9] was 70.6%. The viability, T/C [10] was 60.4%, the viability, T/C [27] was 44.6% and the viability, T/C [11] was 84.2%. The viability, T/C [12] was 90.5%, the viability, T/C [13] was 77% and the viability, T/C [14] was 82.7%. It also gave a viability, T/C [15] of 60.6%, a viability, T/C [28] of 51.6% and a viability, T/C [16] of 80.5%. For the same compound, the viability, T/C [17] was 74.9%, the viability, T/C [18] was 75.6% and the viability, T/C [19] was 72.4%. It also gave a viability, T/C [20] of 63.4%, a viability, T/C [29] of 49.8% and a viability, T/C [21] of 85.1%. For the same compound, the viability, T/C [22] was 75.2%, the viability, T/C [23] was 74% and the viability, T/C [24] was 69.6%. For the same compound, the viability, T/C [25] was 57% and the viability, T/C [30] was 51.5%.

Compound CCNC(=O)CC1N=C(c2ccc(Cl)cc2)c2cc(OC)ccc2-n2c(C)nnc21 (stereo not given) + C=CC(=O)N1CCN(c2nc(=O)n(-c3c(C)ccnc3C(C)C)c3nc(-c4c(O)cccc4F)c(F)cc23)C(C)C1 has an IC50 (second compound 0.1 µM) of over 10 µM, an IC50 (second compound 0.316 µM) of over 10 µM and an IC50 (second compound 1 µM) of over 10 µM. For the same compound, the IC50 (second compound 3.16 µM) was over 10 µM, the IC50 (second compound 10 µM) was over 10 µM and the viability, T/C [1] was 107%. It also gave a viability, T/C [2] of 123%, a viability, T/C [3] of 112% and a viability, T/C [4] of 102%. The viability, T/C [5] was 111%, the viability, T/C [26] was 98.6% and the viability, T/C [6] was 115%. The viability, T/C [7] was 105%, the viability, T/C [8] was 106% and the viability, T/C [9] was 93.1%. It also gave a viability, T/C [10] of 103%, a viability, T/C [27] of 78.5% and a viability, T/C [11] of 107%. It also gave a viability, T/C [12] of 102%, a viability, T/C [13] of 99% and a viability, T/C [14] of 108%. For the same compound, the viability, T/C [15] was 105%, the viability, T/C [28] was 101% and the viability, T/C [16] was 98.2%. It also gave a viability, T/C [17] of 106%, a viability, T/C [18] of 105% and a viability, T/C [19] of 99.9%. It also gave a viability, T/C [20] of 88.9%, a viability, T/C [29] of 81.3% and a viability, T/C [21] of 102%. For the same compound, the viability, T/C [22] was 105%, the viability, T/C [23] was 97.7% and the viability, T/C [24] was 102%. For the same compound, the viability, T/C [25] was 91.8% and the viability, T/C [30] was 81.9%.

In the case of Cn1nccc1Nc1nccc(-c2cc3c(s2)C(C)(C)N(CCN2CCOCC2)C3=O)n1 + C=CC(=O)N1CCN(c2nc(=O)n(-c3c(C)ccnc3C(C)C)c3nc(-c4c(O)cccc4F)c(F)cc23)C(C)C1, the IC50 (second compound 0.1 µM) is reported as 2.39 µM, the IC50 (second compound 0.316 µM) is reported as 3.04 µM and the IC50 (second compound 1 µM) is reported as 2.77 µM. The IC50 (second compound 3.16 µM) was 2.48 µM, the IC50 (second compound 10 µM) was 3 µM and the viability, T/C [1] was 97.8%. For the same compound, the viability, T/C [2] was 105%, the viability, T/C [3] was 85.6% and the viability, T/C [4] was 68.6%. It also gave a viability, T/C [5] of 45%, a viability, T/C [26] of 26.1% and a viability, T/C [6] of 102%. The viability, T/C [7] was 110%, the viability, T/C [8] was 86.3% and the viability, T/C [9] was 78.7%. It also gave a viability, T/C [10] of 46.7%, a viability, T/C [27] of 32.8% and a viability, T/C [11] of 90.2%. The viability, T/C [12] was 87.6%, the viability, T/C [13] was 81.7% and the viability, T/C [14] was 73.6%. For the same compound, the viability, T/C [15] was 46.3%, the viability, T/C [28] was 26.7% and the viability, T/C [16] was 87%. It also gave a viability, T/C [17] of 94.2%, a viability, T/C [18] of 86.4% and a viability, T/C [19] of 72.1%. It also gave a viability, T/C [20] of 44.1%, a viability, T/C [29] of 33.8% and a viability, T/C [21] of 84.2%. The viability, T/C [22] was 80.5%, the viability, T/C [23] was 96.7% and the viability, T/C [24] was 75%. The viability, T/C [25] was 49.6% and the viability, T/C [30] was 35.4%.

— PubChem BioAssay AID1963874 (Molecular Pharmacology Branch, DTP, NCI, 2024)
